{"source": "patent US20250073243A1", "about": "“LOW BACK PAIN TREATMENT” (Persica Pharmaceuticals Ltd., priority 2021, published 2025)", "origin": "cited, not measured here", "key": {"[1]": {"conditions": "oral administration; patients with chronic LBP"}}, "data": [{"compound": "CC(=O)NC[C@H]1CN(c2ccc(N3CCOCC3)c(F)c2)C(=O)O1", "note": "[linezolid, (S)—N-((3-(3-fluoro-4-morpholinophenyl)-2-oxooxazolidin-5-yl)methyl) acetamide]", "values": [{"measurement": "Cmax observed for a standard linezolid dose", "setting": "standard 600 mg linezolid dose", "value": "approximately 15 μg/ml"}, {"measurement": "half-life of standard linezolid administration", "setting": "standard linezolid administration", "value": "4 to 5", "unit": "h"}, {"measurement": "minimum inhibitory concentration (MIC)", "setting": "Gram-positive bacteria", "value": 1, "unit": "µg/mL"}]}, {"compound": "amoxicillin-clavulanate", "values": [{"measurement": "improvement in outcome measures", "setting": "[1]", "value": "clinically important and statistically significant (p<0.001) improvement in all outcome measures"}]}]}
